Measured values from ChEMBL document CHEMBL1212822, “Synthesis, fluorine-18 radiolabeling, and biological evaluation of N-((E)-4-fluorobut-2-en-1-yl)-2beta-carbomethoxy-3beta-(4'-halophenyl)nortropanes: candidate radioligands for in vivo imaging of the brain dopamine transporter with positron emission tomography” (J Med Chem, 2010).

What was measured:
[1] = molecular target: Sodium-dependent dopamine transporter (Homo sapiens, UniProt Q01959)
[2] = molecular target: Sodium-dependent serotonin transporter (Homo sapiens, UniProt P31645)
[3] = molecular target: Sodium-dependent noradrenaline transporter (Homo sapiens, UniProt P23975)
Chain of Sodium-dependent noradrenaline transporter (P23975 whole entry): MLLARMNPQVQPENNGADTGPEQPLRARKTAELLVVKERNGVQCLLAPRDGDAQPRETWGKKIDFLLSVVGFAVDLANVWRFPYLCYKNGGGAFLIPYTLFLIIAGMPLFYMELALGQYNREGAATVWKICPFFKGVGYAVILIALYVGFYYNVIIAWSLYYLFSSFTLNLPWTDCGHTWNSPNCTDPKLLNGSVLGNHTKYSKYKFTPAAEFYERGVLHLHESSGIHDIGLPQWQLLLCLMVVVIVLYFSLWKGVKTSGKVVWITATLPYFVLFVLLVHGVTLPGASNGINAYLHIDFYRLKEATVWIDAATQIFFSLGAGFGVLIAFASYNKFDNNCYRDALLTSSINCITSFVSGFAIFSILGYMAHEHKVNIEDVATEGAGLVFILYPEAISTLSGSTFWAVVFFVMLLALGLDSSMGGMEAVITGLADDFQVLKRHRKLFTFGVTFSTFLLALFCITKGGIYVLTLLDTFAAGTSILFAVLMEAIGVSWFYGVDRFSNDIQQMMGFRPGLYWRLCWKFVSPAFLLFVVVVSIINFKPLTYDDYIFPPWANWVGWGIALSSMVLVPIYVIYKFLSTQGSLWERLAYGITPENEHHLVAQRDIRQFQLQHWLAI
Description: Displacement of [3H]nisoxetine from human NET

Chain of Sodium-dependent serotonin transporter (P31645 whole entry): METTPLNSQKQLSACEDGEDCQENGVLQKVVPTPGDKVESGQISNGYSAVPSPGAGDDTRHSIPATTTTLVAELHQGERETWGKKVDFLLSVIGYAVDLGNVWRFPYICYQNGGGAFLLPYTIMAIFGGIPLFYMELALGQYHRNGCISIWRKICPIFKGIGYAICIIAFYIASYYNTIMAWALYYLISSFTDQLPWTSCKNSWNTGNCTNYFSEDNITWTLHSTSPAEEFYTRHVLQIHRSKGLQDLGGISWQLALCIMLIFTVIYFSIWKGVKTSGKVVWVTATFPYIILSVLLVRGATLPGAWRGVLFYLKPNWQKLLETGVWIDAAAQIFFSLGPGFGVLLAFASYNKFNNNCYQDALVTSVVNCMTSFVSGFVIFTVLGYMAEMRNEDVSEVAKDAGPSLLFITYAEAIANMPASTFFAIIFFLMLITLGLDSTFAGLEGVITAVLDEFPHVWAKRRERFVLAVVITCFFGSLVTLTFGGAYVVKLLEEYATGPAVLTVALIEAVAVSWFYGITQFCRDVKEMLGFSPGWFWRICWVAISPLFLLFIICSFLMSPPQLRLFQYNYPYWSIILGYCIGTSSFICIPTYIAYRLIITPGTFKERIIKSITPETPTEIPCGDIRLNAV
Chain of Sodium-dependent dopamine transporter (Q01959 whole entry): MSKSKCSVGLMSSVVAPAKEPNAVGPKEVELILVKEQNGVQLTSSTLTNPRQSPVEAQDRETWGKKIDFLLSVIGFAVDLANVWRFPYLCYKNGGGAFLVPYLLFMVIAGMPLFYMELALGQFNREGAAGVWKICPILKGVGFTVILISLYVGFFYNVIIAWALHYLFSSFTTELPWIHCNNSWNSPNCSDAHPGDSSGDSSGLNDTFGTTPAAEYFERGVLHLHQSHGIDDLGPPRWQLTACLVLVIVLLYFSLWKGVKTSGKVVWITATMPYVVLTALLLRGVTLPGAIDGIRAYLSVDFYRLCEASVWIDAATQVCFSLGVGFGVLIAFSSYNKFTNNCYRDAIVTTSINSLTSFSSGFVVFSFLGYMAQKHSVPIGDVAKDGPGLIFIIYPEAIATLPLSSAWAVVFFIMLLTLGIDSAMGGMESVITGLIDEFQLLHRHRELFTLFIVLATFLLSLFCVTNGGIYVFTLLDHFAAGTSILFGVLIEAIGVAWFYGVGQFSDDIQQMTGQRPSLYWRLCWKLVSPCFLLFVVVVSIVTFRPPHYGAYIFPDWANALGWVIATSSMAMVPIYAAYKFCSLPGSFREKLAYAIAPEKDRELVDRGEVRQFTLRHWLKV

Row | SMILES | Ki [1] | Ki [2] | Ki [3]
1 | COC(=O)[C@@H]1C2CCC(C[C@@H]1c1ccc(F)cc1)N2C/C=C/CF (stereo partly drawn) | 9.5 nM | – | –
2 | COC(=O)[C@@H]1C2CCC(C[C@@H]1c1ccc(Br)cc1)N2C/C=C/CF (stereo partly drawn) | – | 8.5 nM | 87 nM
3 | COC(=O)[C@@H]1C2CCC(C[C@@H]1c1ccc(I)cc1)N2C/C=C/CF (stereo partly drawn) | 0.5 nM | 2.2 nM | –
4 | COC(=O)[C@@H]1C2CCC(C[C@@H]1c1ccc(C)cc1)N2C/C=C/CF (stereo partly drawn) | 2.7 nM | 147 nM | 265 nM
